In this assay the target is T1, UCHL1 (Homo sapiens, UniProt P09936).
T1 construct: made in house; host or cells: HEK293T
T1 sequence (P09936 1-223): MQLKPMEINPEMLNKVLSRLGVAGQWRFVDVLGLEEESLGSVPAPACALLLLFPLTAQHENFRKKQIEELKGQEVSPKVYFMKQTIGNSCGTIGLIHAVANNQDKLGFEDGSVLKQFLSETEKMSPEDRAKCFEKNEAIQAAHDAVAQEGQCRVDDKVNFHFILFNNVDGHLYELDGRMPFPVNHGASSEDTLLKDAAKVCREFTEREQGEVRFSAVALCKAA
Kind of assay: UCHL1 biochemical IC50 assay (fluorescence polarisation). The settings on record: 30 min enzyme/compound pre-incubation at room temp, read after 2 hr incubation, read-out: Activity range (UCHL1 biochemical IC50 assay). The text has this:
Biological Activity of Compounds of the Invention Abbreviations: TAMRA carboxytetramethylrhodamine PCR polymerase chain reaction PBS phosphate buffered saline EDTA ethylenediaminetetraacetic acid Tris 2-amino-2-(hydroxymethyl)-1,3-propanediol NP-40 Nonidet P-40, octylphenoxypolyethoxyethanol BSA bovine serum albumin In Vitro UCHL1 Inhibition Assay Expression and Purification of UCHL1
The UCHL1 construct was PCR amplified and cloned into a pFLAG-CMV-6a vector (Sigma-Aldrich) with an N-terminal FLAG tag. HEK293T cells were transfected with FLAG-UCHL1 using TransIT-LT1 transfection reagent (Mirus) according to the manufacturer's instructions. Cells were harvested 40 hours after transfection. Cells were washed once with PBS and scraped in lysis buffer (50 mM Tris, pH 7.5, 150 mM NaCl, 3 mM EDTA, 0.5% NP40, 10% glycerol, 5 mM beta-mercaptoethanol, protease inhibitors (complete mini, Roche) and phosphatase inhibitors (PhosSTOP mini, Roche). Lysates were incubated for 30 min on ice and centrifuged at 1200 rpm for 10 min at 4° C. Soluble supernatant was added to FLAG affinity resin (EZview Rad ANTI-FLAG M2 affinity gel, Sigma-Aldrich) equilibrated in low salt buffer (20 mM Tris, pH 7.5, 150 mM NaCl, 0.5 mM EDTA, 5 mM beta-mercaptoethanol) and incubated at 4° C. for 3 hours rotating. The resin was spun at 2000 rpm for 2 min and the supernatant was removed. The resin was washed two times with low salt buffer and one time with high salt buffer (20 mM Tris, pH 7.5, 500 mM NaCl, 0.5 mM EDTA, 5 mM beta-mercaptoethanol, protease inhibitors (complete mini, Roche) and phosphatase inhibitors (PhosSTOP mini, Roche). To elute the bound UCHL1, elution buffer (10 mM Tris, pH 7.5, 150 mM NaCl, 0.5 mM FDTA, 10% glycerol, 0.5% NP40, 5 mM beta-mercaptoethanol, 0.15 mg/ml 3×FLAG peptide (Sigma-Aldrich)) was added to the resin and incubated at 4° C. for 2.5 hours rotating. The resin was centrifuged at 4000 rpm for 30 seconds, and the supernatant containing purified FLAG-UCHL1 was removed and stored at −80° C.
UCHL1 Biochemical IC50 Assay
Dilution plates were prepared at 21 times the final concentration (2100 μM for a final concentration of 100 µM) in 50% DMSO in a 96-well polypropylene V-bottom plate (Greiner #651201). A typical 8-point dilution series to be 100, 30, 10, 3, 1, 0.3, 0.1, 0.03 μM final. Reactions were performed in duplicate in black 384 well plates (small volume, Greiner 784076) in a final reaction volume of 21 μl. Either 1 μl of 50% DMSO or diluted compound was added to the plate. UCHL1 was diluted in reaction buffer (20 mM Tris, pH 7.5, 100 mM NaCl, 0.05% Tween 20, 0.5 mg/ml BSA, 5 mM—beta mercaptoethanol) to the equivalent of 0.05 μl/well and 10 μl of diluted UCHL1 was added to the compound. Enzyme and compound were incubated for 30 min at room temp. Reactions were initiated by the addition of 50 nM of TAMRA labelled peptide linked to ubiquitin via an iso-peptide bond as fluorescence polarisation substrate. Reactions were read immediately after addition of substrate and following a 2 hr incubation at room temperature. Readings were performed on a Pherastar Plus (BMG Labtech). λ Excitation 540 nm; k Emission 590 nm.
On the technique in general: Fluorescence polarisation rises when a labelled molecule tumbles more slowly, as on binding a larger partner.

Results on 16 compounds are retold here after US11472798B2 (Mission Therapeutics Limited, priority 2014, dated 2022).

For orientation: IC50 means the concentration needed to halve the response being measured.

As to `COC1CCN(c2ccc(NC(=O)[C@H]3CCN(C#N)C3)nc2)CC1` [Example 61, (S)-1-cyano-N-(5-(4-methoxy-piperidin-1-yl)pyridin-2-yl)pyrrolidine-3-carboxamide], the IC50 lay in the range of 1000 to 10000 nM.
Regarding `N#CN1CC[C@H](C(=O)Nc2nc3ccc(-n4ccnn4)cc3s2)C1` [Example 62, (S)-N-(6-(1H-1,2,3-triazol-1-yl)benzo[d]thiazol-2-yl)-1-cyano-pyrrolidine-3-carboxamide], the IC50 was under 1000 nM.
As for `N#CN1CC[C@H](C(=O)Nc2nc3ccc(-n4nccn4)cc3s2)C1` [Example 63, (S)-N-(6-(2H-1,2,3-triazol-2-yl)benzo[d]thiazol-2-yl)-1-cyano-pyrrolidine-3-carboxamide], the figure is 1000 to 10000 nM; as for `CNC(=O)c1ccc(-c2cnc(NC(=O)[C@H]3CCN(C#N)C3)s2)cc1` [Example 64, (S)-1-cyano-N-(5-(4-(methyl-carbamoyl)phenyl)thiazol-2-yl)pyrrolidine-3-carboxamide], under 1000 nM.
Consider `Cc1nc(NC(=O)[C@H]2CCN(C#N)C2)sc1CN1CCOCC1` [Example 65, (S)-1-cyano-N-(4-methyl-5-(morpholinomethyl)thiazol-2-yl)pyrrolidine-3-carboxamide], for which the IC50 was under 1000 nM.
As for `N#CN1CC[C@H](C(=O)Nc2ncc(-c3ccc(F)cc3)s2)C1` [Example 66, (S)-1-cyano-N-(5-(4-fluorophenyl)thiazol-2-yl)pyrrolidine-3-carboxamide], the IC50 is under 1000 nM.
As for `N#CN1CC[C@H](C(=O)Nc2ncc(-c3ccc(F)c(F)c3)s2)C1` [Example 67, (S)-1-cyano-N-(5-(3,4-difluorophenyl)thiazol-2-yl)pyrrolidine-3-carboxamide], the figure is under 1000 nM; as for `N#CN1CC[C@H](C(=O)Nc2ncc(-c3ccc(C(F)(F)F)cc3)s2)C1` [Example 68, (S)-1-cyano-N-(5-(4-(trifluoromethyl)phenyl)thiazol-2-yl)pyrrolidine-3-carboxamide], under 1000 nM; as for `N#CN1CC[C@H](C(=O)Nc2ncc(-c3ccncc3)s2)C1` [Example 69, (S)-1-cyano-N-(5-(pyridin-4-yl)thiazol-2-yl)pyrrolidine-3-carboxamide], under 1000 nM.
As for `N#CN1CC[C@H](C(=O)Nc2ncc(-c3ccccn3)s2)C1` [Example 70, (S)-1-cyano-N-(5-(pyridin-2-yl)thiazol-2-yl)pyrrolidine-3-carboxamide], the figure is 1000 to 10000 nM; as for `N#CN1CC[C@@H](C(=O)Nc2ccc(-c3ccccc3)cn2)C1` [Example 71, (R)-1-cyano-N-(5-phenylpyridin-2-yl)pyrrolidine-3-carboxamide], 10000 to 30000 nM.
With `C[C@H]1[C@@H](C(=O)Nc2ncc(-c3ccccc3)s2)CCN1C#N` [Example 72, (2S,3S)-1-cyano-2-methyl-N-(5-phenylthiazol-2-yl)pyrrolidine-3-carboxamide], the IC50 is under 1000 nM.
As for `C[C@H]1[C@@H](C(=O)Nc2ncc(-c3ccc(F)cc3)s2)CCN1C#N` [Example 73, (2S,3S)-1-cyano-N-(5-(4-fluorophenyl)thiazol-2-yl)-2-methylpyrrolidine-3-carboxamide], the figure is under 1000 nM; as for `C[C@H]1[C@@H](C(=O)Nc2cn(-c3ccccc3)cn2)CCN1C#N` [Example 74, (2S,3S)-1-cyano-2-methyl-N-(1-phenyl-1H-imidazol-4-yl)pyrrolidine-3-carboxamide], under 1000 nM.
As for `C[C@H]1[C@@H](C(=O)Nc2cc(-c3ccccc3)[nH]n2)CCN1C#N` [Example 75, (2S,3S)-1-cyano-2-methyl-N-(5-phenyl-1H-pyrazol-3-yl)pyrrolidine-3-carboxamide], the figure is under 1000 nM; as for `C[C@H]1[C@@H](C(=O)Nc2ncc(C3CCOCC3)s2)CCN1C#N` [Example 76, (2S,3S)-1-cyano-2-methyl-N-(5-(tetrahydro-2H-pyran-4-yl)thiazol-2-yl)pyrrolidine-3-carboxamide], under 1000 nM.
